Numbers after ± are expanded uncertainties.
Assays:
[1] = xn = mol fraction of the nth substance listed; conditions: 298.15 K, 100 kPa, Liquid
[2] = 298.15 K; 100 kPa; Liquid
[3] = 298.15 K, Liquid mixture 1, Drop volume

**Q.** Which results are given for `CC(C)CCOP(=O)(OCCC(C)C)OCCC(C)C` [triisopentyl phosphate] + CCCCCCCCCCCC?
**A.** mass density ([1]; x1 = 0.0999): 765.49 ± 4 kg/m3; viscosity ([1]; x1 = 0.0999): 1.488 ± 0.035 mPa·s; mass density ([1]; x1 = 0.1998): 785.78 ± 3.7 kg/m3; viscosity ([1]; x1 = 0.1998): 1.678 ± 0.037 mPa·s; mass density ([1]; x1 = 0.3001): 805.91 ± 3.5 kg/m3; viscosity ([1]; x1 = 0.3001): 1.896 ± 0.04 mPa·s; mass density ([1]; x1 = 0.4002): 826.05 ± 3.2 kg/m3; viscosity ([1]; x1 = 0.4002): 2.119 ± 0.043 mPa·s; mass density ([1]; x1 = 0.5001): 846.25 ± 3 kg/m3; viscosity ([1]; x1 = 0.5001): 2.391 ± 0.047 mPa·s; mass density ([1]; x1 = 0.5999): 866.75 ± 2.7 kg/m3; viscosity ([1]; x1 = 0.5999): 2.674 ± 0.051 mPa·s; mass density ([1]; x1 = 0.7002): 888.26 ± 2.5 kg/m3; viscosity ([1]; x1 = 0.7002): 3.015 ± 0.056 mPa·s; mass density ([1]; x1 = 0.7998): 909.12 ± 2.2 kg/m3; viscosity ([1]; x1 = 0.7998): 3.375 ± 0.062 mPa·s; mass density ([1]; x1 = 0.9001): 929.41 ± 2 kg/m3; viscosity ([1]; x1 = 0.9001): 3.804 ± 0.068 mPa·s; mass density ([1]; x1 = 1): 946.95 ± 1.8 kg/m3; viscosity ([1]; x1 = 1): 4.267 ± 0.076 mPa·s

**Q.** With `CCCCCCCCCCCC` [dodecane] + CC(C)CCOP(=O)(OCCC(C)C)OCCC(C)C as the compound, how does the mass density ([1]; x2 = 0) read?
**A.** 745.29 ± 4.2 kg/m3

**Q.** And the viscosity ([1]; x2 = 0)?
**A.** 1.347 ± 0.033 mPa·s

**Q.** What does the source list for `CCCCCCCCCCCC` [dodecane]?
**A.** mass density [2]: 745.29 ± 4.2 kg/m3; viscosity [2]: 1.347 ± 0.033 mPa·s

**Q.** With `CCCCCCCCCCCC` [dodecane] + O as the compound, how does the interfacial tension ([3]; 100 kPa) read?
**A.** 52.6 ± 0.8 mN/m

**Q.** Which interfacial tension ([3]; 101 kPa) does the source give for `CC(C)CCOP(=O)(OCCC(C)C)OCCC(C)C` [triisopentyl phosphate] + O here?
**A.** 14.4 ± 0.8 mN/m

**Q.** For `CC(C)CCOP(=O)(OCCC(C)C)OCCC(C)C` [triisopentyl phosphate], which mass density [2] is on record?
**A.** 946.95 ± 1.8 kg/m3

**Q.** What about the viscosity [2] of the same compound?
**A.** 4.267 ± 0.076 mPa·s

Reference: the NIST ThermoML archive (doi:10.1021/je400493x)
